Reference: patent publication US20220177877A1, “HIGHLY MULTIPLEXED BASE EDITING” (President and Fellows of Harvard College, priority 2019, published 2022)

Experiments:
[1] = test system: LINE-1; assay: Line-1 subfamily analysis and matches to HL1gR4 (HL1gR4 PCR products); design: species or system human; conditions: for Reads: Total Reads 35520
[2] = test system: HEK 293T
Description: Stable HEK 293T edited isolated cell lines (BE4-gam, dBE4-gam, ABE and dABE) were expanded and karyotypically compared with the control groups and the wild type HEK 293T. Actively growing cells were passaged 1-2 days prior to sending to BWH CytoGenomics Core Laboratory. The cells were received by the core at 60-80% confluency. Chromosomal count, variances and abnormalities were investigated.

[3] = test system: LINE-1; assay: FACS single cell direct NGS of targeted deamination, HEK 293T; assay type: cell-based, human; conditions: for Mean target deamination % / Percent of cells with targeted deamination / Number of cells with targeted deamination: HEK 293T; for Mean target deamination % / Percent of cells with targeted deamination: Day 2; for Number of cells with targeted deamination: Day 2, 96 analyzed cells
Description: To quantify early genetic editing in cells transfected with Cas9/BE and gRNA expression plasmids, single cells were sorted and prepared as follows. Two days post-transfection, single cells were FACS-sorted into 96-well PCR plates containing 10 μL of QUICKEXTRACT™ DNA Extraction Solution (Epicentre Cat. #QE09050) per well and genomic DNA (gDNA) was extracted using the manufacturer's protocol. Briefly, the sorted plates were sealed, vortexed and heated at 65° C. for 6 minutes then 98° C. for 2 minutes. The NGS library was prepared as described later below.
(§1) Library preparation was conducted as previously described^5.

[4] = test system: LINE-1
Description: (§2) Single cells were FACS-sorted into flat bottom 96-well plates containing 100 μL of DMEM with 10% FBS and 1% Penicillin/Streptomycin per well. Sorted plates were incubated for ˜14 days until well-characterized colonies were visible, with periodic media changes performed as necessary. To extract gDNA, the cells were first detached using 30 μL TRYPLE™ Express (Thermofisher Cat. #12604021) and neutralized with 30 μL growth media. Then, 4 μL of the resulting cell suspension was transferred to 10 μL of QE. Genomic DNA was extracted according to manufacturer's protocol, as described previously.
(§3) Library preparation was conducted as previously described^5. Briefly, genomic DNA was amplified using locus-specific primers attached to part of the Illumina adapter sequence. A second round of PCR included the index sequence and the full Illumina adapter. All PCRs were carried out using KAPA HiFi HotStart ReadyMix (KAPA Biosystems KK2602) according to the manufacturer's thermocycler conditions. Libraries were purified using gel extraction (Qiagen Cat. #28706), quantified using Nanodrop and pooled together for deep sequencing on the MiSeq using 150 paired end (PE) reads.
(§4) All paired end reads were aligned to the reference genome using bowtie2, and the resulting alignment files were converted to bam, sorted, indexed, and variant called using samtools^7. All SNV data within a 30 bp window from the 5′ start of the gRNA proceeding through the PAM and extending an additional seven bp's (for a 20 bp gRNA) are reported to analyze the editing window and purity of editing.

[5] = test system: single-locus targets
Description: HEK 293T cells were obtained from ATCC with verification of cell line identification and mycoplasma negative results. They were expanded using 10% fetal bovine serum (FBS) in high-glucose DMEM with glutamax passaging at a typical rate of 1:100 and maintained at 37° C. with 5% CO2. Transfection was conducted using Lipofectamine 2000 (ThermoFisher Catalogue #11668019) using the protocol recommended by the manufacturer with slight modifications outlined below. 24 hours before transfection ˜1.0×10^5 cells were seeded per well in a 12-well plate along with 1 mL of media. A total of 2 μg of DNA and 2 μL of Lipofectamine 2000 were used per well. For Cas9 plasmids, the DNA content per well was 1 μg of pCas9_GFP mixed with 1 μg of gRNA-expressing plasmid. For BE plasmids, 1.5 μg of BE was mixed with 0.5 μg of gRNA plasmid. In the dBE vs nBE comparison used to generate FIGS. 4A-4C, Pifithrin-α (10 ng/μ1) from Sigma-Aldrich P4359 (source #063M4741V, Batch #0000003019) was added to the media 30 minutes before transfection and maintained in the first day media change.
Raw Illumina sequencing data was demultiplexed using bcl2fastq. All paired end reads were aligned to the reference genome using bowtie2^49 and the resulting alignment files were parsed for their cigar string to determine the position and size of all indels within each read using a custom perl script (https://github.com/CRISPRengineer/mutation_indel). All indels that were sequenced in both the forward and reverse reads were summed across all reads and reported for each sample along with the total number of reads. Indels within a 30 bp window from the 5′ start of the gRNA proceeding through the PAM and extending an additional seven bp's (for a 20 bp gRNA) were counted and summed for each sample.
as §4

[6] = test system: LINE-1; assay: Single cell clonal isolation and sequence verification of live edited HEK 293T clones; conditions: for Mean target deamination % / Number of cells with targeted deamination / Percent of cells with targeted deamination: HEK 293T, Day 14; for non-specific nucleotide conversions in gRNA and PAM: most highly edited clone versus parental 293T control
Description: as §2, §3, §4

[7] = test system: LINE-1; assay: NGS base editing deamination analysis, bulk transfected HEK 293T; assay type: cell-based, human; conditions: for gRNAs with above control levels of base editing in genomic DNA: HEK 293T, LINE-1 gRNAs
Description: as §1

[8] = HL1gR6, 3 days after transfection
[9] = 293T, HL1gR4, two days post-transfection

For “HL1gR4: SpCas9 gRNA targeting LINE-1 ORF2, SEQ ID NO: 54 (guide ATTCTACCAGAGGTACAAGG; chemistry not given here)”, the Percentage of reads ([1]; # of Mismatches 0) was 64.1%, the Reads ([1]; # of Mismatches 0) was 22780 and the Percentage of reads ([1]; # of Mismatches 1) was 18.4%. It also gave a Reads ([1]; # of Mismatches 1) of 6546, a Percentage of reads ([1]; # of Mismatches 2) of 3.2% and a Reads ([1]; # of Mismatches 2) of 1131. For the same substance, the Percentage of reads ([1]; # of Mismatches 3) was 0.4%, the Reads ([1]; # of Mismatches 3) was 148 and the Percentage of reads ([1]; # of Mismatches 4) was 0.2%. For the same substance, the Reads ([1]; # of Mismatches 4) was 63, the Percentage of reads ([1]; # of Mismatches 5) was 0.0% and the Reads ([1]; # of Mismatches 5) was 2. The Percentage of reads ([1]; # of Mismatches 6) was 0.1%, the Reads ([1]; # of Mismatches 6) was 26 and the Percentage of reads ([1]; # of Mismatches 7) was 0.0%. For the same substance, the Reads ([1]; # of Mismatches 7) was 1, the Percentage of reads ([1]; # of Mismatches 8) was 0.0% and the Reads ([1]; # of Mismatches 8) was 1. For the same substance, the Percentage of reads ([1]; # of Mismatches 9) was 0.0%, the Reads ([1]; # of Mismatches 9) was 1 and the Percentage of reads ([1]; # of Mismatches >9) was 13%. The Reads ([1]; # of Mismatches >9) was 4600.

For “dCBE4-gam: nick-less dCas9 cytidine base editor with mu-gam (H840A), SEQ ID NO: 108”, the “total number of chromosomal aberrations of top edited clones” value (shortened to “total number”) [2] was “not significantly different than control groups”, the “mean target nucleotide deamination frequency compared to nBE equivalents” value ([3]; 293T, HL1gR4, 2 days after transfection) was “significant reductions” and the “Mean target deamination %” value [3] was 4.43%. The “Percent of cells with targeted deamination” value (from here on “Percent of cells”) [3] was 41.7%, the “Number of cells with targeted deamination” value (“Number of cells” below) [3] was 40 and the “Number of analyzed cells” value [4] was 29. The indel activity [5] was “reduced to background levels”, the “Mean target deamination %” value [6] was 3.05% and the “Number of cells” value [6] was 20. The “Percent of cells” value [6] was 69%, the “increase in mean editing frequency among surviving live clones compared to nicking counterpart” value ([6]; day 14) was 2.38 fold and the “non-specific nucleotide conversions in gRNA and PAM” value (from here on “non-specific nucleotide conversions”) [6] was “some non-specific nucleotide conversions”.

For “dCBE4: nick-less dCas9 cytidine base editor (H840A), SEQ ID NO: 107”, the indel activity [5] was “reduced to background levels”, the “improvement in editing efficiency over CBE2” value ([5]; 293T cells, day five) was 2.38 fold and the “reduction in efficiency compared to nicking counterparts” value ([5]; 293T cells, day five) was 34.7%.

In the case of “nABE: ecTadA(wt)-linker(32aa)-ecTadA*(7.10)-linker(32aa)-nCas9-NLS, SEQ ID NO: 15, Addgene #102919”, the “gRNAs with above control levels of base editing in genomic DNA” value [7] is reported as 4 out of 5, the editing efficiency [7, 8] is reported as 4.94% and the loci edited [7, 8] is reported as roughly 1290 loci. The “total number” value [2] was “not significantly different than control groups”, the “Mean target deamination %” value [3] was 5.32% and the “Percent of cells” value [3] was 60.4%. For the same substance, the “Number of cells” value [3] was 58, the “decrease in editing efficiency at the early timepoint” value ([3]; nABE 5.32% versus dABE 1.45%) was 3.67 fold and the “Number of analyzed cells” value [4] was 16. The “Mean target deamination %” value [6] was 0.88%, the “Number of cells” value [6] was 4 and the “Percent of cells” value [6] was 25%. The “non-specific nucleotide conversions” value [6] was “not”.

In the case of “nCBE3: rAPOBEC1-XTEN-nCas9-UGI-NLS, SEQ ID NO: 10, Addgene #73021 [reference compound]”, the “mean deamination frequency compared with nCBE4-gam” value [3, 9] is reported as “significantly higher” and the “fate of edited cell lines before day 30” value ([6]; 293T, HL1gR4) is reported as “died”.

With “nCBE4-gam: Cas9 nickase-cytidine deaminase-gam, SEQ ID NO: 12, Addgene #100806 [reference compound]” the “gRNAs with above control levels of base editing in genomic DNA” value [7] was 4 out of 5, the “total number” value [2] was “not significantly different than control groups” and the “deamination in the most highly edited single cell” value [3, 9] was “up to 54.9%”. The “estimated loci edited in the most highly edited single cell” value [3, 9] was 14,300 loci, the “Mean target deamination %” value [3] was 6.08% and the “Percent of cells” value [3] was 65.6%. The “Number of cells” value [3] was 63, the “C→T deamination in cells after a second round of editing of cloneK” value ([3]; day 2) was “up to 36.26%” and the “Number of analyzed cells” value [4] was 12. For the same substance, the “deamination frequencies of surviving cell lines” value ([6]; 293T, HL1gR4, day 30) was ≤ 1.37 % of LINE-1, the “estimated sites edited in surviving cell lines” value ([6]; 293T, HL1gR4, day 30) was roughly 356 sites and the “Mean target deamination %” value [6] was 1.28%. The “Number of cells” value [6] was 4, the “Percent of cells” value [6] was 33% and the “non-specific nucleotide conversions” value [6] was “some non-specific nucleotide conversions”.
